{"source": "PubChem BioAssay (NCI)", "assay_in_all_cases": "inhibition of tumour cell growth, NCI panel, 48 h", "key": {"[1]": {"system": "CCRF-CEM leukemia"}, "[2]": {"system": "MDA-MB-231 breast"}, "[3]": {"system": "RPMI-8226 leukemia"}, "[4]": {"system": "SK-MEL-5 melanoma"}, "[5]": {"system": "SW-620 colon"}, "[6]": {"system": "KM12 colon"}, "[7]": {"system": "SR leukemia"}, "[8]": {"system": "HL-60(TB) leukemia"}}, "note": "Several values for one entry are separate records, joined by “and”; a condition that tells them apart may be missing. Identical values can stand only once.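 Method: 48-hour compound exposure of cells in 96-well plates, five concentrations, linear interpolation of endpoints. GI50 marks 50% less growth. TGI is the concentration that stops growth completely.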 *1 amine or outer side, *2 acyl side, *3 side chain or, on linkers, in order; H or OH if unused. Where a SMILES comes first, the peptide text is derived from it. CO = O=C([*:1])[*:2]"}
{"smiles": "N#Cc1c(N)nc(N2CCOCC2)c(C#N)c1-c1cccc(O)c1", "values": [{"measurement": "GI50", "setting": "[1]", "result": "> 100", "unit": "µM"}, {"measurement": "TGI", "setting": "[1]", "result": "> 100", "unit": "µM"}, {"measurement": "GI50", "setting": "[2]", "result": 71.2, "unit": "µM"}, {"measurement": "TGI", "setting": "[2]", "result": "> 100", "unit": "µM"}, {"measurement": "GI50", "setting": "[3]", "result": 48.7, "unit": "µM"}, {"measurement": "TGI", "setting": "[3]", "result": "> 100", "unit": "µM"}, {"measurement": "GI50", "setting": "[4]", "result": "> 100", "unit": "µM"}, {"measurement": "TGI", "setting": "[4]", "result": "> 100", "unit": "µM"}, {"measurement": "GI50", "setting": "[5]", "result": "> 100", "unit": "µM"}, {"measurement": "TGI", "setting": "[5]", "result": "> 100", "unit": "µM"}]}
{"smiles": "Cc1cc(S(=O)(=O)/N=C(\\N)n2nc(C)c(C)c2C)c(SCc2ccccc2)cc1Cl", "values": [{"measurement": "GI50", "setting": "[1]", "result": 4.49, "unit": "µM"}, {"measurement": "TGI", "setting": "[1]", "result": "> 100", "unit": "µM"}, {"measurement": "GI50", "setting": "[6]", "result": 9.47, "unit": "µM"}, {"measurement": "TGI", "setting": "[6]", "result": "> 100", "unit": "µM"}, {"measurement": "GI50", "setting": "[2]", "result": "> 100", "unit": "µM"}, {"measurement": "TGI", "setting": "[2]", "result": "> 100", "unit": "µM"}, {"measurement": "GI50", "setting": "[3]", "result": 2.9, "unit": "µM"}, {"measurement": "TGI", "setting": "[3]", "result": "> 100", "unit": "µM"}, {"measurement": "GI50", "setting": "[4]", "result": 5.65, "unit": "µM"}, {"measurement": "TGI", "setting": "[4]", "result": "> 100", "unit": "µM"}, {"measurement": "GI50", "setting": "[7]", "result": "> 100", "unit": "µM"}, {"measurement": "TGI", "setting": "[7]", "result": "> 100", "unit": "µM"}, {"measurement": "GI50", "setting": "[5]", "result": 72.7, "unit": "µM"}, {"measurement": "TGI", "setting": "[5]", "result": "> 100", "unit": "µM"}]}
{"smiles": "CC(C)C(NC(=O)C(CCCN=C(N)N)NC(=O)NC(Cc1ccccc1)C(=O)O)C(=O)NC(C=O)CCCN=C(N)N", "note": "(stereo not drawn) ({Phe-CO}-Arg-Val-Arg-aldehyde; configuration not given here)", "values": [{"measurement": "GI50", "setting": "[6]", "result": "> 5", "unit": "µM"}, {"measurement": "TGI", "setting": "[6]", "result": "> 5", "unit": "µM"}, {"measurement": "GI50", "setting": "[2]", "result": "> 5", "unit": "µM"}, {"measurement": "TGI", "setting": "[2]", "result": "> 5", "unit": "µM"}, {"measurement": "GI50", "setting": "[4]", "result": "> 5", "unit": "µM"}, {"measurement": "TGI", "setting": "[4]", "result": "> 5", "unit": "µM"}, {"measurement": "GI50", "setting": "[5]", "result": "> 5", "unit": "µM"}, {"measurement": "TGI", "setting": "[5]", "result": "> 5", "unit": "µM"}]}
{"smiles": "CCC(=O)Nc1ccc2c(c1)CN1C(=O)c3ccccc3C1=N2", "values": [{"measurement": "GI50", "setting": "[8]", "result": "> 100", "unit": "µM"}, {"measurement": "TGI", "setting": "[8]", "result": "> 100", "unit": "µM"}, {"measurement": "GI50", "setting": "[6]", "result": "> 100", "unit": "µM"}, {"measurement": "TGI", "setting": "[6]", "result": "> 100", "unit": "µM"}, {"measurement": "GI50", "setting": "[2]", "result": "> 100", "unit": "µM"}, {"measurement": "TGI", "setting": "[2]", "result": "> 100", "unit": "µM"}, {"measurement": "GI50", "setting": "[3]", "result": "> 100", "unit": "µM"}, {"measurement": "TGI", "setting": "[3]", "result": "> 100", "unit": "µM"}, {"measurement": "GI50", "setting": "[4]", "result": "> 100", "unit": "µM"}, {"measurement": "TGI", "setting": "[4]", "result": "> 100", "unit": "µM"}, {"measurement": "GI50", "setting": "[7]", "result": "> 100", "unit": "µM"}, {"measurement": "TGI", "setting": "[7]", "result": "> 100", "unit": "µM"}, {"measurement": "GI50", "setting": "[5]", "result": "> 100", "unit": "µM"}, {"measurement": "TGI", "setting": "[5]", "result": "> 100", "unit": "µM"}]}
{"smiles": "O=C1OC2(c3ccccc31)c1cc(I)c(O)c(I)c1Oc1c2cc(I)c(O)c1I", "values": [{"measurement": "TGI", "setting": "[1]", "result": "> 100", "unit": "µM"}, {"measurement": "TGI", "setting": "[6]", "result": 43.1, "unit": "µM"}, {"measurement": "TGI", "setting": "[2]", "result": "> 100", "unit": "µM"}, {"measurement": "TGI", "setting": "[3]", "result": "> 100", "unit": "µM"}, {"measurement": "TGI", "setting": "[4]", "result": "> 100", "unit": "µM"}, {"measurement": "TGI", "setting": "[7]", "result": "> 100", "unit": "µM"}, {"measurement": "TGI", "setting": "[5]", "result": "> 100", "unit": "µM"}]}
{"smiles": "O=C1NC(=O)[C@H]2C3C=CC([C@@H]12)[C@@H]1C(=O)NC(=O)[C@H]31", "values": [{"measurement": "TGI", "setting": "[1]", "result": "> 100", "unit": "µM"}, {"measurement": "TGI", "setting": "[8]", "result": "> 100", "unit": "µM"}, {"measurement": "TGI", "setting": "[2]", "result": "> 100", "unit": "µM"}, {"measurement": "TGI", "setting": "[3]", "result": "> 100", "unit": "µM"}, {"measurement": "TGI", "setting": "[4]", "result": "> 100", "unit": "µM"}, {"measurement": "TGI", "setting": "[7]", "result": "> 100", "unit": "µM"}, {"measurement": "TGI", "setting": "[5]", "result": "> 100", "unit": "µM"}]}
{"smiles": "Cc1cccc(Oc2ccc(Nc3ncnc4ccc(NC(=O)CN5CCN(C)CC5)cc34)cc2Cl)c1", "values": [{"measurement": "GI50", "setting": "[1]", "result": 2.06, "unit": "µM"}, {"measurement": "TGI", "setting": "[1]", "result": 5.21, "unit": "µM"}, {"measurement": "GI50", "setting": "[6]", "result": 1.74, "unit": "µM"}, {"measurement": "TGI", "setting": "[6]", "result": 3.24, "unit": "µM"}, {"measurement": "GI50", "setting": "[2]", "result": 1.66, "unit": "µM"}, {"measurement": "TGI", "setting": "[2]", "result": 3.17, "unit": "µM"}, {"measurement": "GI50", "setting": "[3]", "result": 1.76, "unit": "µM"}, {"measurement": "TGI", "setting": "[3]", "result": 4.39, "unit": "µM"}, {"measurement": "GI50", "setting": "[4]", "result": 1.64, "unit": "µM"}, {"measurement": "TGI", "setting": "[4]", "result": 3.03, "unit": "µM"}, {"measurement": "GI50", "setting": "[7]", "result": 1.72, "unit": "µM"}, {"measurement": "TGI", "setting": "[7]", "result": 5.32, "unit": "µM"}, {"measurement": "GI50", "setting": "[5]", "result": 1.69, "unit": "µM"}, {"measurement": "TGI", "setting": "[5]", "result": 3.27, "unit": "µM"}]}
{"smiles": "Cc1cc2c(cc1C)[n+](=O)c(C(=O)c1cccs1)c(C(F)(F)F)n2[O-]", "values": [{"measurement": "GI50", "setting": "[8]", "result": "1.96 µM and 2.54 µM"}, {"measurement": "TGI", "setting": "[8]", "result": "11 µM and 28.8 µM"}, {"measurement": "GI50", "setting": "[6]", "result": "5.38 µM and 10.3 µM"}, {"measurement": "TGI", "setting": "[6]", "result": "12.6 µM and 51.9 µM"}, {"measurement": "GI50", "setting": "[2]", "result": "1.1 µM and 1.67 µM"}, {"measurement": "TGI", "setting": "[2]", "result": "8.54 µM and 8 µM"}, {"measurement": "GI50", "setting": "[3]", "result": "1.04 µM and 2.84 µM"}, {"measurement": "TGI", "setting": "[3]", "result": "8.01 µM and 30.6 µM"}, {"measurement": "GI50", "setting": "[4]", "result": "0.724 µM and 1.3 µM"}, {"measurement": "TGI", "setting": "[4]", "result": "1.78 µM and 2.8 µM"}, {"measurement": "GI50", "setting": "[7]", "result": 0.924, "unit": "µM"}, {"measurement": "TGI", "setting": "[7]", "result": 8.11, "unit": "µM"}, {"measurement": "GI50", "setting": "[5]", "result": "2.48 µM and 11.5 µM"}, {"measurement": "TGI", "setting": "[5]", "result": "50 µM and 50.6 µM"}]}
{"smiles": "COc1cc(/C=C/C(=O)CC(=O)/C=C/c2ccc(OC(=O)CCNC34CC5CC(CC(C5)C3)C4)c(OC)c2)ccc1OC(=O)CCNC12CC3CC(CC(C3)C1)C2", "values": [{"measurement": "GI50", "setting": "[8]", "result": 2.27, "unit": "µM"}, {"measurement": "TGI", "setting": "[8]", "result": 9.27, "unit": "µM"}, {"measurement": "GI50", "setting": "[6]", "result": 2.95, "unit": "µM"}, {"measurement": "TGI", "setting": "[6]", "result": 7.8, "unit": "µM"}, {"measurement": "GI50", "setting": "[2]", "result": 3.97, "unit": "µM"}, {"measurement": "TGI", "setting": "[2]", "result": 25.3, "unit": "µM"}, {"measurement": "GI50", "setting": "[3]", "result": 2.1, "unit": "µM"}, {"measurement": "TGI", "setting": "[3]", "result": 6.01, "unit": "µM"}, {"measurement": "GI50", "setting": "[4]", "result": 3.28, "unit": "µM"}, {"measurement": "TGI", "setting": "[4]", "result": 12.6, "unit": "µM"}, {"measurement": "GI50", "setting": "[7]", "result": 2.37, "unit": "µM"}, {"measurement": "TGI", "setting": "[7]", "result": 8.84, "unit": "µM"}, {"measurement": "GI50", "setting": "[5]", "result": 2.43, "unit": "µM"}, {"measurement": "TGI", "setting": "[5]", "result": 6.03, "unit": "µM"}]}
